Here are results for 11 molecules from patent US20240366639A1, “HETEROCYCLIC GLP-1 AGONISTS” (GASHERBRUM BIO, INC., priority 2021, published 2024).

This experiment concerns the target T1, GLP-1 Receptor (GLP1R) (Homo sapiens, UniProt P43220).
T1 construct: host or cells: HEK293/GLP1R/CRE-LUC
Nature of the experiment: GLP-1R agonist cAMP stimulation assay (Method 3). The class given is cell-based. The note with it: HEK293/GLP1R/CRE-LUC cells (HDB), Method 3, 30 min incubation. The procedure:
Method 3: Activation of GLP-1 receptor is known to stimulate cyclic AMP (cAMP) production in cells which indicates primary coupling to the Gαs subunit of the G protein heterotrimeric complex.
To optimize functional activity directed toward Gαs coupling, a HEK293/CRE-Luc cell line developed by HDB stably expressing the GLP-1 Receptor was used, 200× concentration of compound working solutions were prepared (Agilent Technologies Bravo) with 1/2 log serial dilution in 384-well Echo LDV plate (Labcyte, Cat #LP-0200). 50 nL/well 200× concentration of compound working solutions were moved to 384-well white low volume plate (Greiner, Cat #784075) using Labcyte ECHO550. 1×10^5 cells/mL HEK293/GLP1R/CRE-LUC(HD Biosciences) cell suspensions prepared with assay buffer [DPBS containing 0.5 mM IBMX (Sigma, Cat #15879) and 0.1% BSA (GENVIEW, Cat #FA016-100 g)], 10 μL cell suspensions were added to each well of previous generated assay plate which already contains 50 nL compound at 200× concentration using ThermoFisher Multidrop Combi (1000 cells/well). Seal the plate and incubate at 37° C. with 5% CO2 for 30 min.
After incubation the cAMP assay signal was generated using cAMP dynamic 2 Kit (Cisbio). 5 μL cAMP-d2 working solution was added to each well, followed with 5 μL Anti-cAMP antibody-cryptate working solution added to each well using ThermoFisher Multidrop Combi. Incubate at room temperature for 1 hour protected from light. Read the fluorescence at 665 nm and 615 nm with Reader PerkinElmer EnVision.

Where [1] appears, read: read-out: GLP1R cAMP Stimulation DR: EC50 (nM) [Species: Human, Assay Cell Line: HDB].
Where [2] appears, read: read-out: GLP1R cAMP Stimulation DR: pEC50 (M) [Species: Human, Assay Cell Line: HDB] (converted).

Like-named read-outs stand apart in the source and are kept apart here.

T1 sequence (P43220 24-463): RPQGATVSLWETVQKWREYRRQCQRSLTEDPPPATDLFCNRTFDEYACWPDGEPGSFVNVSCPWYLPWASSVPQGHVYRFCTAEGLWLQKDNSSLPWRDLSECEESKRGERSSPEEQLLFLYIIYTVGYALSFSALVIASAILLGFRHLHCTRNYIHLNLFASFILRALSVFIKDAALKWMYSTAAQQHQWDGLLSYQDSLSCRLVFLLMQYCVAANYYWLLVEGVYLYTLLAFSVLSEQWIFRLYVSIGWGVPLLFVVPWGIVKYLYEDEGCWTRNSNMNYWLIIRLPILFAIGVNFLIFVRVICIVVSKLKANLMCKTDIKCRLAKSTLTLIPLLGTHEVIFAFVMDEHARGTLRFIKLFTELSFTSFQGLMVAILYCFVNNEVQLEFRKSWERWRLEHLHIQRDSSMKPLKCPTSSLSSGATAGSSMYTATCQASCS

Turning to `CCP(=O)(CC)c1ccc(-n2ccn(-c3c4c(nn3-c3cc(C)c(F)c(C)c3)CCN(C(=O)c3cc5cc(C6CCOCC6)ccc5n3[C@@]3(c5noc(=O)[nH]5)C[C@@H]3C)[C@H]4C)c2=O)cc1NC` [Compound 121a, 3-((1S,2S)-1-(2-((S)-3-(3-(4-(diethylphosphoryl)-3-(methylamino)phenyl)-2-oxo-2,3-dihydro-1H-imidazol-1-yl)-2-(4-fluoro-3,5-dimethylphenyl)-4-methyl-4,5,6,7-tetrahydro-2H-pyrazolo[4,3-c]pyridine-5-carbonyl)-5-(tetrahydro-2H-pyran-4-yl)-1H-indol-1-yl)-2-methylcyclopropyl)-1,2,4-oxadiazol-5(4H)-one], the EC50 is, setting by setting: under setting [1], less than 0.1 nM; under setting [2], no more than 0.1 nM.
Taken in the same sequence, the figures for `Cc1cc(-n2nc3c(c2-n2ccn(-c4ccc(P(C)(C)=O)cc4F)c2=O)[C@H](C)N(C(=O)c2cc4cc(C5CCOCC5)ccc4n2[C@@]2(c4noc(=O)[nH]4)C[C@@H]2C)CC3)cc(C)c1F` [Compound 122a, 3-((1S,2S)-1-(2-((S)-3-(3-(4-(dimethylphosphoryl)-2-fluorophenyl)-2-oxo-2,3-dihydro-1H-imidazol-1-yl)-2-(4-fluoro-3,5-dimethylphenyl)-4-methyl-4,5,6,7-tetrahydro-2H-pyrazolo[4,3-c]pyridine-5-carbonyl)-5-(tetrahydro-2H-pyran-4-yl)-1H-indol-1-yl)-2-methylcyclopropyl)-1,2,4-oxadiazol-5(4H)-one] were less than 0.1 nM and no more than 0.1 nM.
For the molecule `Cc1cc(-n2nc3c(c2-n2ccn(-c4ccc(P(C)(C)=O)c(OC(F)(F)F)c4)c2=O)[C@H](C)N(C(=O)c2cc4cc(C5CCOCC5)ccc4n2[C@@]2(c4noc(=O)[nH]4)C[C@@H]2C)CC3)cc(C)c1F` [Compound 123a, 3-((1S,2S)-1-(2-((S)-3-(3-(4-(dimethylphosphoryl)-3-(trifluoromethoxy)phenyl)-2-oxo-2,3-dihydro-1H-imidazol-1-yl)-2-(4-fluoro-3,5-dimethylphenyl)-4-methyl-4,5,6,7-tetrahydro-2H-pyrazolo[4,3-c]pyridine-5-carbonyl)-5-(tetrahydro-2H-pyran-4-yl)-1H-indol-1-yl)-2-methylcyclopropyl)-1,2,4-oxadiazol-5(4H)-one], the EC50 was 0.2 to 0.5 nM under setting [1] and 0.1 to 1 nM under setting [2].
Turning to `Cc1cc(-n2ccn(-c3c4c(nn3-c3cc(C)c(F)c(C)c3)CCN(C(=O)c3cc5cc(C6CCOCC6)ccc5n3[C@@]3(c5noc(=O)[nH]5)C[C@@H]3C)[C@H]4C)c2=O)ccc1P(C)(C)=O` [Compound 124a, 3-((1S,2S)-1-(2-((S)-3-(3-(4-(dimethylphosphoryl)-3-methylphenyl)-2-oxo-2,3-dihydro-1H-imidazol-1-yl)-2-(4-fluoro-3,5-dimethylphenyl)-4-methyl-4,5,6,7-tetrahydro-2H-pyrazolo[4,3-c]pyridine-5-carbonyl)-5-(tetrahydro-2H-pyran-4-yl)-1H-indol-1-yl)-2-methylcyclopropyl)-1,2,4-oxadiazol-5(4H)-one], the EC50 was less than 0.1 nM under setting [1] and no more than 0.1 nM under setting [2].
As for `Cc1cc(-n2nc3c(c2-n2ccn(-c4ccc(P(C)(C)=O)c(N5CCOCC5)c4)c2=O)[C@H](C)N(C(=O)c2cc4cc(C5CCOCC5)ccc4n2[C@@]2(c4noc(=O)[nH]4)C[C@@H]2C)CC3)cc(C)c1F` [Compound 125a, 3-((1S,2S)-1-(2-((S)-3-(3-(4-(dimethylphosphoryl)-3-morpholinophenyl)-2-oxo-2,3-dihydro-1H-imidazol-1-yl)-2-(4-fluoro-3,5-dimethylphenyl)-4-methyl-4,5,6,7-tetrahydro-2H-pyrazolo[4,3-c]pyridine-5-carbonyl)-5-(tetrahydro-2H-pyran-4-yl)-1H-indol-1-yl)-2-methylcyclopropyl)-1,2,4-oxadiazol-5(4H)-one], the EC50 by setting is: under setting [1], 0.2 to 0.5 nM; under setting [2], 0.1 to 1 nM.
Taken in the same sequence, the figures for `Cc1cc(-n2nc3c(c2-n2ccn(-c4ccc(P5(=O)CCN(C)CC5)cc4)c2=O)[C@H](C)N(C(=O)c2cc4cc(C5CCOCC5)ccc4n2[C@@]2(c4noc(=O)[nH]4)C[C@@H]2C)CC3)cc(C)c1F` [Compound 126a, 3-((1S,2S)-1-(2-((S)-2-(4-fluoro-3,5-dimethylphenyl)-4-methyl-3-(3-(4-(1-methyl-4-oxido-1,4-azaphosphinan-4-yl)phenyl)-2-oxo-2,3-dihydro-1H-imidazol-1-yl)-4,5,6,7-tetrahydro-2H-pyrazolo[4,3-c]pyridine-5-carbonyl)-5-(tetrahydro-2H-pyran-4-yl)-1H-indol-1-yl)-2-methylcyclopropyl)-1,2,4-oxadiazol-5(4H)-one] were 0.1 to 0.2 nM and 0.1 to 1 nM.
Taken in the same sequence, the figures for `Cc1cc(-n2nc3c(c2-n2ccn(-c4ccc(P5(=O)CCCC5)cc4)c2=O)[C@H](C)N(C(=O)c2cc4cc(C5CCOCC5)ccc4n2[C@@]2(c4noc(=O)[nH]4)C[C@@H]2C)CC3)cc(C)c1F` [Compound 127a, 3-((1S,2S)-1-(2-((S)-2-(4-fluoro-3,5-dimethylphenyl)-4-methyl-3-(3-(4-(1-oxidophospholan-1-yl)phenyl)-2-oxo-2,3-dihydro-1H-imidazol-1-yl)-4,5,6,7-tetrahydro-2H-pyrazolo[4,3-c]pyridine-5-carbonyl)-5-(tetrahydro-2H-pyran-4-yl)-1H-indol-1-yl)-2-methylcyclopropyl)-1,2,4-oxadiazol-5(4H)-one] were less than 0.1 nM and no more than 0.1 nM.
Regarding `Cc1cc(-n2nc3c(c2-n2ccn(-c4ccc(P(=O)(C(C)C)C(C)C)cc4)c2=O)[C@H](C)N(C(=O)c2cc4cc(C5CCOCC5)ccc4n2[C@@]2(c4noc(=O)[nH]4)C[C@@H]2C)CC3)cc(C)c1F` [Compound 128a, 3-((1S,2S)-1-(2-((S)-3-(3-(4-(diisopropylphosphoryl)phenyl)-2-oxo-2,3-dihydro-1H-imidazol-1-yl)-2-(4-fluoro-3,5-dimethylphenyl)-4-methyl-4,5,6,7-tetrahydro-2H-pyrazolo[4,3-c]pyridine-5-carbonyl)-5-(tetrahydro-2H-pyran-4-yl)-1H-indol-1-yl)-2-methylcyclopropyl)-1,2,4-oxadiazol-5(4H)-one], the EC50 was less than 0.1 nM under setting [1] and no more than 0.1 nM under setting [2].
Take `CCP(=O)(CC)c1ccc(-n2ccn(-c3c4c(nn3-c3cc(C)c(F)c(C)c3)CCN(C(=O)c3cc5cc(C6CCOCC6)ccc5n3[C@@]3(c5noc(=O)[nH]5)C[C@@H]3C)[C@H]4C)c2=O)cc1` [Compound 129a, 3-((1S,2S)-1-(2-((S)-3-(3-(4-(diethylphosphoryl)phenyl)-2-oxo-2,3-dihydro-1H-imidazol-1-yl)-2-(4-fluoro-3,5-dimethylphenyl)-4-methyl-4,5,6,7-tetrahydro-2H-pyrazolo[4,3-c]pyridine-5-carbonyl)-5-(tetrahydro-2H-pyran-4-yl)-1H-indol-1-yl)-2-methylcyclopropyl)-1,2,4-oxadiazol-5(4H)-one]: the EC50 by setting is: under setting [1], less than 0.1 nM; under setting [2], no more than 0.1 nM.
Regarding `CNc1cc(-n2ccn(-c3c4c(nn3-c3cc(C)c(F)c(C)c3)CCN(C(=O)c3cc5cc(C6CCOCC6)ccc5n3[C@@]3(c5noc(=O)[nH]5)C[C@@H]3C)[C@H]4C)c2=O)ccc1P(=O)(C1CC1)C1CC1` [Compound 132a, 3-((1S,2S)-1-(2-((S)-3-(3-(4-(dicyclopropylphosphoryl)-3-(methylamino)phenyl)-2-oxo-2,3-dihydro-1H-imidazol-1-yl)-2-(4-fluoro-3,5-dimethylphenyl)-4-methyl-4,5,6,7-tetrahydro-2H-pyrazolo[4,3-c]pyridine-5-carbonyl)-5-(tetrahydro-2H-pyran-4-yl)-1H-indol-1-yl)-2-methylcyclopropyl)-1,2,4-oxadiazol-5(4H)-one], the EC50 is 0.1 to 0.2 nM under setting [1] and 0.1 to 1 nM under setting [2].
Turning to `CCP(=O)(CC)c1ccc(-n2ccn(-c3c4c(nn3-c3cc(C)c(F)c(C)c3)CCN(C(=O)c3cc5cc(C6CCC(F)(F)CC6)ccc5n3[C@@]3(c5noc(=O)[nH]5)C[C@@H]3C)[C@H]4C)c2=O)cc1NC` [Compound 133a, 3-((1S,2S)-1-(2-((S)-3-(3-(4-(diethylphosphoryl)-3-(methylamino)phenyl)-2-oxo-2,3-dihydro-1H-imidazol-1-yl)-2-(4-fluoro-3,5-dimethylphenyl)-4-methyl-4,5,6,7-tetrahydro-2H-pyrazolo[4,3-c]pyridine-5-carbonyl)-5-(4,4-difluorocyclohexyl)-1H-indol-1-yl)-2-methylcyclopropyl)-1,2,4-oxadiazol-5(4H)-one], the EC50 under setting [1] was in the range of 0.1 to 0.2 nM and the EC50 under setting [2] is 0.1 to 1 nM.
